What is called IC50 is the concentration that inhibits the measured activity by half. A word on the Ki: it is a dissociation constant, usually derived from enzyme kinetics or from competition with a known ligand. The EC50 is the concentration that produces a half-maximal response.

Three molecules from ChEMBL document CHEMBL1201862, “PubChem BioAssay data set” (2004) can be followed below.

Common to all, as to format: functional
For experiment [1], the target named is T1, Sentrin-specific protease 8 (Homo sapiens, UniProt Q96LD8).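 Further: luminescence read-out of SENP8 inhibition, dose-response confirmation following an ultra-high-throughput screen.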
T1 sequence (Q96LD8 whole entry): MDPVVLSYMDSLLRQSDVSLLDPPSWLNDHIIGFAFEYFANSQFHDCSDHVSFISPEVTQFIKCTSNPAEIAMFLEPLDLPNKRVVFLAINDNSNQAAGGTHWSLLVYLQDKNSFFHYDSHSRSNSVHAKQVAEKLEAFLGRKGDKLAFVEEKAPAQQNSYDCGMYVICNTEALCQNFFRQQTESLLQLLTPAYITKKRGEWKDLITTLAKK

Experiment [2] addresses T2, Sentrin-specific protease 7 (Homo sapiens, UniProt Q9BQF6).
T2 sequence (Q9BQF6 whole entry): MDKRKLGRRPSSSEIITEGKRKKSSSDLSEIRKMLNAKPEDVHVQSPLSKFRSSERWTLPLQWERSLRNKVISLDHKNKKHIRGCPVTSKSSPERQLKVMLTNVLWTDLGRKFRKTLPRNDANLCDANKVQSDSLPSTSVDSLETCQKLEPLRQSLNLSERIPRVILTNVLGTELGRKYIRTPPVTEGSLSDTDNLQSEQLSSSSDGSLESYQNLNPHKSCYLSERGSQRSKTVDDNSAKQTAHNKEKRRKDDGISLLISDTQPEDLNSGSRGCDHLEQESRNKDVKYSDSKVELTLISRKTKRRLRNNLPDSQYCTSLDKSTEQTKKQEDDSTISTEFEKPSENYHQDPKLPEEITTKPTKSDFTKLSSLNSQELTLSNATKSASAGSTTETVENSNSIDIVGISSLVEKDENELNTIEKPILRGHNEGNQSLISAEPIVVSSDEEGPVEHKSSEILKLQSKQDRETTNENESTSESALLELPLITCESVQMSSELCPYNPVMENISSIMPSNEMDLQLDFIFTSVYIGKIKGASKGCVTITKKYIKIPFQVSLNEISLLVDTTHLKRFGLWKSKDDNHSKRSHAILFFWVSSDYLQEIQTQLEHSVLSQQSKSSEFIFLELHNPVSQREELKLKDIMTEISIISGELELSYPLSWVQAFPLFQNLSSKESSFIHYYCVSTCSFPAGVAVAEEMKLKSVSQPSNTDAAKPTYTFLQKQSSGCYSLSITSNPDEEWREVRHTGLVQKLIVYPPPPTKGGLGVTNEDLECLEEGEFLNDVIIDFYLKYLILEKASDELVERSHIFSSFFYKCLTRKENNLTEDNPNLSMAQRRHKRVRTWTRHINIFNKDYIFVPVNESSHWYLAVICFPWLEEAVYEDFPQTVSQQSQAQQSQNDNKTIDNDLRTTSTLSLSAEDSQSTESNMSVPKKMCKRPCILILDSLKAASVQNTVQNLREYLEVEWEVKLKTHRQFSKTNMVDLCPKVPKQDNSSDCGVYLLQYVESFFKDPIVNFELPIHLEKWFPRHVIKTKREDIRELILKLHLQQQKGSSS

Experiment [3] deals with Receptor tyrosine-protein kinase erbB-4 (Homo sapiens, UniProt Q15303).
Chain of Receptor tyrosine-protein kinase erbB-4 (Q15303 whole entry): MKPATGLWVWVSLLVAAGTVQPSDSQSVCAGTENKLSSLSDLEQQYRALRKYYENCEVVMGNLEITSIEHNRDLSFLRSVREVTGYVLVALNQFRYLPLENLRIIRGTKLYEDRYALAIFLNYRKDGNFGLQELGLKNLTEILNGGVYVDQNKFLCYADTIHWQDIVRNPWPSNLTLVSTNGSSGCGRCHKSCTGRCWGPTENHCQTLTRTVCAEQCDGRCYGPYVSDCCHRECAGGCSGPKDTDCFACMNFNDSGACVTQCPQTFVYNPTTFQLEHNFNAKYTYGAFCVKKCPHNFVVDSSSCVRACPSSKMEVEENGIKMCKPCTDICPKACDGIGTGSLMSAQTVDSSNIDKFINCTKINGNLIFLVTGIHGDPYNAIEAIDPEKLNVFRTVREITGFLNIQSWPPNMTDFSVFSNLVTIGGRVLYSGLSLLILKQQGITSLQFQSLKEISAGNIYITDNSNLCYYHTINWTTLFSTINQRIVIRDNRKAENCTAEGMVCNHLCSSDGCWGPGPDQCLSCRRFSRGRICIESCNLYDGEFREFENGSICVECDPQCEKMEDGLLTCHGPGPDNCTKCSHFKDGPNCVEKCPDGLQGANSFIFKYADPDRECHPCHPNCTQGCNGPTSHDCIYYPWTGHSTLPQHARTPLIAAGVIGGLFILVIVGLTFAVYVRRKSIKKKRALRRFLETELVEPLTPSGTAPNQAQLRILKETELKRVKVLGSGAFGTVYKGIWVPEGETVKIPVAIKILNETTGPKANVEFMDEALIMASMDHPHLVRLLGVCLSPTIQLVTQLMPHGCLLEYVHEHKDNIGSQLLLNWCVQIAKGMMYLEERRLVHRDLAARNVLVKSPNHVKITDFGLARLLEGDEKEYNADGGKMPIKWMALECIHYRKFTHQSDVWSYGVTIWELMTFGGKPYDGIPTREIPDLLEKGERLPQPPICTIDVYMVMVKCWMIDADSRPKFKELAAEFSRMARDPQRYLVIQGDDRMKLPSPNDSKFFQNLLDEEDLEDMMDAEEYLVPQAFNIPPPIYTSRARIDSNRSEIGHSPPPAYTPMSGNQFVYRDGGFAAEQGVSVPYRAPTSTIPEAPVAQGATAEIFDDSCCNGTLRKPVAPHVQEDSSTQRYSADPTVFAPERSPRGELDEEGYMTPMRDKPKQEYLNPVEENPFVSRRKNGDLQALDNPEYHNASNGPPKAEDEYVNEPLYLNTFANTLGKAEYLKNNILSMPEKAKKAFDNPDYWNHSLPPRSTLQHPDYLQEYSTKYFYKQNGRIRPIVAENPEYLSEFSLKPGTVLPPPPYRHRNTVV
Experiment [4] has as its target Casein kinase II subunit alpha (Homo sapiens, UniProt P68400).
The target of experiment [5] is Mitochondrial peptide methionine sulfoxide reductase (Bos taurus, UniProt P54149). Briefly: Absorbance-based biochemical high throughput dose response assay for activators of Methionine sulfoxide reductase A (MsrA).
Chain of Mitochondrial peptide methionine sulfoxide reductase (P54149 whole entry): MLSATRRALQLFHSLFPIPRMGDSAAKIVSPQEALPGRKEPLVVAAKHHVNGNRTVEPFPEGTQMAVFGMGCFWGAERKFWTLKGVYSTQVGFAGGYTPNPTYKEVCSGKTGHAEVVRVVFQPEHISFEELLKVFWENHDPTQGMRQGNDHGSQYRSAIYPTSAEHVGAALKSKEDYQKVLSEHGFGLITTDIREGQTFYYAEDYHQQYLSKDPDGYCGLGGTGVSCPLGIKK

Calls of active or inactive are those of the source.

Chain of Casein kinase II subunit alpha (P68400 whole entry): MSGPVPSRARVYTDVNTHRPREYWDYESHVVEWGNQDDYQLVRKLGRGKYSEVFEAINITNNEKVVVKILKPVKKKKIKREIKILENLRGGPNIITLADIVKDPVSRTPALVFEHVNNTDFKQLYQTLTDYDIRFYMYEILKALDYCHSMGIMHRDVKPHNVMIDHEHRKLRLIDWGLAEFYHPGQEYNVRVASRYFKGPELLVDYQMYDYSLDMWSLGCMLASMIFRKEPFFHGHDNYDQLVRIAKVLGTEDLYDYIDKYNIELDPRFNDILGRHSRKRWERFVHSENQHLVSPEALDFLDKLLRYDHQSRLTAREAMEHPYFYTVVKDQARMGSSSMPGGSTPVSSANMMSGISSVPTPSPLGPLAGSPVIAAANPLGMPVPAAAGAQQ

As for `CCOC(=O)c1c(NS(=O)(=O)c2ccccc2)n(CCCOC)c2nc3ccccc3nc12`, the IC50 in experiment [1] was 1.91 µM (active); in experiment [2] it was 1.02 µM (active).
For the molecule `OC1CCC(Nc2cc(Cl)nc(-c3c[nH]c4ncccc34)n2)CC1` (configuration not stated), the values for the Ki in experiment [3] and in experiment [4] were > 3.98 µM (inactive) and 0.1 µM (active), respectively.
Consider `O=C(COC(=O)c1ccc([N+](=O)[O-])s1)NCCc1ccccc1`, for which the IC50 is 4.74 µM (active) in experiment [1] and 7.56 µM (active) in experiment [2]. The EC50 in experiment [5] was 22.1 µM (inactive).
